Measurements reported in patent publication US6706663B2, “Herbicidal 3-heterocyclic substituted benzisothiazole and benzisoxazole compounds” (Wyeth, priority 2000, dated 2004).

What was measured:
ORYSAT (Rice, Tebonnet) [1] = assay: Postemergence herbicidal evaluation; format: in vivo, Oryza sativa, (L.) Tebonnet; conditions: postemergence
Method in brief: (§1)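 Seedlings grown for about two weeks were sprayed postemergence and then kept under standard greenhouse care. Injury was rated visually 4–5 weeks after treatment on a 0–9 scale against untreated controls, and ratings from repeat tests were averaged.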

[2] = system: ABUTH (Abutilon theophrasti); assay: Postemergence herbicidal evaluation; format: in vivo, Medic.; conditions: postemergence
Method in brief: as §1

GALAP (Galium aparine) = assay: Postemergence herbicidal evaluation; format: in vivo; conditions: postemergence
Method in brief: as §1

[3] = system: CASOB (Cassia obtusifolia); assay: Postemergence herbicidal evaluation; format: in vivo, L.; conditions: postemergence
Method in brief: as §1

[4] = system: AMBEL (Ambrosia artemisifolia); assay: Postemergence herbicidal evaluation; format: in vivo, L.; conditions: postemergence
Method in brief: as §1

[5] = system: CHEAL (Chenopodium album); assay: Postemergence herbicidal evaluation; format: in vivo, L.; conditions: postemergence
Method in brief: as §1

CYPIR (Cyperus iria) = assay: Flooded paddy, preemergence weed control; format: in vivo; conditions: rated 3-4 weeks after treatment, 0-9 rating scale
Method in brief: (§2)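 Visual 0–9 ratings versus controls scored stand, vigor, malformation, size, chlorosis and overall appearance. Plants grew from seeds or propagating organs sown 0.5 cm deep in silt loam, with water held 1.5–3 cm above the soil for the whole test under greenhouse care.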

ORYSAT (Rice, Tebonnet) [6] = assay: Preemergence herbicidal evaluation; format: in vivo, Oryza sativa, (L.) Tebonnet; conditions: rated 4-5 weeks after treatment
[7] = system: CYPSE (Cyperus serotinus); assay: Flooded paddy, preemergence weed control; format: in vivo, Rottb.; conditions: rated 3-4 weeks after treatment, 0-9 rating scale
Method in brief: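 Seeds or propagules were planted 0.5 cm deep in silt loam and flooded to 1.5–3 cm. Compounds in 50/50 v/v aqueous/acetone were pipetted into the flood water at about 0.0080 to 0.1250 kg/ha. After 3–4 weeks in the greenhouse, effect was rated visually on a 0–9 scale versus untreated control.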

[8] = system: CASOB (Cassia obtusifolia); assay: Preemergence herbicidal evaluation; format: in vivo, L.; conditions: rated 4-5 weeks after treatment
Method in brief: (§3)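 Greenhouse preemergence test: freshly planted cups were sprayed once with an aqueous acetone solution of compound. Injury was judged visually on a 0–9 scale relative to a control, four to five weeks later.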

[9] = system: AMBEL (Ambrosia artemisifolia); assay: Preemergence herbicidal evaluation; format: in vivo, L.; conditions: rated 4-5 weeks after treatment
Method in brief: as §3

[10] = system: CHEAL (Chenopodium album); assay: Preemergence herbicidal evaluation; format: in vivo, L.; conditions: rated 4-5 weeks after treatment
Method in brief: as §3

[11] = system: IPOHE (Ipomoea hederacea); assay: Postemergence herbicidal evaluation; format: in vivo, (L.) Jacq.; conditions: postemergence
Method in brief: as §1

[12] = system: SAGPY (Sagittaria pygmaea); assay: Flooded paddy, preemergence weed control; format: in vivo, L.; conditions: rated 3-4 weeks after treatment, 0-9 rating scale
Method in brief: as §2

[13] = system: TRZAWR (Wheat, Winter, cv Riband); assay: Postemergence herbicidal evaluation; format: in vivo, Triticum aestivum; conditions: postemergence
Method in brief: as §1

[14] = system: ECHCG (Echinochloa crus-galli); assay: Preemergence herbicidal evaluation; format: in vivo, (L.) Beau; conditions: rated 4-5 weeks after treatment
Method in brief: as §3

SETVI (Setaria viridis) [15] = assay: Preemergence herbicidal evaluation; format: in vivo, (L.) Beau; conditions: rated 4-5 weeks after treatment
Method in brief: as §3

[16] = system: MOOVA (Monochoria vaginalis); assay: Flooded paddy, preemergence weed control; format: in vivo, Presl.; conditions: rated 3-4 weeks after treatment, 0-9 rating scale
Method in brief: as §2

SETVI (Setaria viridis) [17] = assay: Postemergence herbicidal evaluation; format: in vivo, (L.) Beau; conditions: postemergence
Method in brief: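 First, seedlings are raised in flats for about two weeks. Next, compound dispersed in 50/50 acetone/water with 0.5% TWEEN 20 is sprayed at 40 psi to deliver about 0.0040–1.000 kg/ha. Plants are then maintained in the greenhouse and rated 0-9 after four to five weeks.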

C[C@@H]1C[C@H](C)OC(c2nsc3ccc(-n4c(=O)cc(C(F)(F)F)n(C)c4=O)cc23)O1 (stereo partly drawn) [Compound 51, 3-[3-[(4R,6S)-4,6-dimethyl-m-dioxan-2-yl]-1,2-benzisothiazol-5-yl]-1-methyl-6-(trifluoromethyl)uracil]
ORYSAT herbicidal rating (ORYSAT (Rice, Tebonnet) [1]; rate 0.0320 kg/ha): 3.0 | ORYSAT herbicidal rating (ORYSAT (Rice, Tebonnet) [1]; rate 0.0620 kg/ha): 4.0 | ABUTH herbicidal rating ([2]; rate 0.0320 kg/ha): 9.0 | ABUTH herbicidal rating ([2]; rate 0.0620 kg/ha): 9.0 | GALAP herbicidal rating (GALAP (Galium aparine); rate 0.0320 kg/ha): 2.0 | GALAP herbicidal rating (GALAP (Galium aparine); rate 0.0620 kg/ha): 5.0 | CASOB herbicidal rating ([3]; rate 0.0320 kg/ha): 2.0 | CASOB herbicidal rating ([3]; rate 0.0620 kg/ha): 6.0 | AMBEL herbicidal rating ([4]; rate 0.0320 kg/ha): 9.0 | AMBEL herbicidal rating ([4]; rate 0.0620 kg/ha): 9.0 | CHEAL herbicidal rating ([5]; rate 0.0320 kg/ha): 7.0 | CHEAL herbicidal rating ([5]; rate 0.0620 kg/ha): 8.0 | herbicidal rating, CYPIR (CYPIR (Cyperus iria); rate 0.0080 kg/ha): 3.0 | herbicidal rating, CYPIR (CYPIR (Cyperus iria); rate 0.0320 kg/ha): 8.0 | herbicidal rating, CYPIR (CYPIR (Cyperus iria); rate 0.1250 kg/ha): 9.0 | Preemergence herbicidal rating ORYSAT (ORYSAT (Rice, Tebonnet) [6]; Rate 0.0620 kg/ha): 8.5 | Preemergence herbicidal rating ORYSAT (ORYSAT (Rice, Tebonnet) [6]; Rate 0.1250 kg/ha): 9.0 | Preemergence herbicidal rating ORYSAT (ORYSAT (Rice, Tebonnet) [6]; Rate 0.2500 kg/ha): 9.0 | herbicidal rating, CYPSE ([7]; rate 0.0320 kg/ha): 9.0 | herbicidal rating, CYPSE ([7]; rate 0.1250 kg/ha): 9.0 | Preemergence herbicidal rating CASOB ([8]; Rate 0.0620 kg/ha): 9.0 | Preemergence herbicidal rating CASOB ([8]; Rate 0.1250 kg/ha): 9.0 | Preemergence herbicidal rating CASOB ([8]; Rate 0.2500 kg/ha): 9.0 | Preemergence herbicidal rating AMBEL ([9]; Rate 0.0620 kg/ha): 9.0 | Preemergence herbicidal rating AMBEL ([9]; Rate 0.1250 kg/ha): 9.0 | Preemergence herbicidal rating AMBEL ([9]; Rate 0.2500 kg/ha): 9.0 | Preemergence herbicidal rating CHEAL ([10]; Rate 0.0620 kg/ha): 9.0 | Preemergence herbicidal rating CHEAL ([10]; Rate 0.1250 kg/ha): 9.0 | Preemergence herbicidal rating CHEAL ([10]; Rate 0.2500 kg/ha): 9.0 | IPOHE herbicidal rating ([11]; rate 0.0320 kg/ha): 9.0 | IPOHE herbicidal rating ([11]; rate 0.0620 kg/ha): 9.0 | herbicidal rating, SAGPY ([12]; rate 0.0080 kg/ha): 0.0 | herbicidal rating, SAGPY ([12]; rate 0.0320 kg/ha): 7.0 | herbicidal rating, SAGPY ([12]; rate 0.1250 kg/ha): 9.0 | TRZAWR herbicidal rating ([13]; rate 0.0320 kg/ha): 3.5 | TRZAWR herbicidal rating ([13]; rate 0.0620 kg/ha): 4.0 | Preemergence herbicidal rating ECHCG ([14]; Rate 0.0620 kg/ha): 9.0 | Preemergence herbicidal rating ECHCG ([14]; Rate 0.1250 kg/ha): 9.0 | Preemergence herbicidal rating ECHCG ([14]; Rate 0.2500 kg/ha): 9.0 | Preemergence herbicidal rating SETVI (SETVI (Setaria viridis) [15]; Rate 0.0620 kg/ha): 9.0 | Preemergence herbicidal rating SETVI (SETVI (Setaria viridis) [15]; Rate 0.1250 kg/ha): 9.0 | Preemergence herbicidal rating SETVI (SETVI (Setaria viridis) [15]; Rate 0.2500 kg/ha): 9.0 | herbicidal rating, MOOVA ([16]; rate 0.0320 kg/ha): 9.0 | herbicidal rating, MOOVA ([16]; rate 0.1250 kg/ha): 9.0 | SETVI herbicidal rating (SETVI (Setaria viridis) [17]; rate 0.0320 kg/ha): 3.0 | SETVI herbicidal rating (SETVI (Setaria viridis) [17]; rate 0.0620 kg/ha): 3.0
